Measurements published in the CombiSolv-Exp solvation set (Vermeire and Green 2021).

Test: solvent given as SMILES

C1COCCOCCOCCOCCOCCO1
Settings	solvation free energy, 298 K [kcal/mol]
in Cc1cccc(C)c1	-12.9
in O	-15.6

CC(C)c1ccccc1
Settings	solvation free energy, 298 K [kcal/mol]
in C1CCOC1	-6.5
in CC#N	-5.53
in CC(C)=O	-5.89
in CC(C)O	-5.21
in CCCCCCC	-5.72
in CCCCCCCCO	-5.43
in CO	-5.18
in NC=O	-3.38
in O	-0.34
in O=CN1CCOCC1	-5.28
in OCCO	-3.54
in OCCOCCO	-4.43
in OCCOCCOCCO	-4.56

CCCOC=O
Settings	solvation free energy, 298 K [kcal/mol]
in CCCCCCCCCCCCCCCC	-3.29
in CCCCCCCCO	-3.64
in O	-2.51
in [2H]O[2H]	-2.55

O=C(O)c1ccc(I)cc1
Settings	solvation free energy, 298 K [kcal/mol]
in CN(C)C=O	-14
in O	-7.96

CCCCCOCCCCC
Settings	solvation free energy, 298 K [kcal/mol]
in CCCCCCCCCCCCCCCC	-6.4
in CCCCCCCCO	-6.46

Clc1ccc(Cl)c(Cl)c1Cl
Settings	solvation free energy, 298 K [kcal/mol]
in CCCCCCCCC=CCCCCCCCC(=O)OCC(COC(=O)CCCCCCCC=CCCCCCCCC)OC(=O)CCCCCCCC=CCCCCCCCC	-7.82
in CCCCCCCCO	-7.69
in O	-1.34

CC(C)=O
Settings	solvation free energy, 298 K [kcal/mol]
in Brc1cccc2ccccc12	-3.32
in C1CCOC1	-3.89
in C1COCCO1	-3.87
in CC#N	-4.32
in CC(=O)N(C)C	-3.95
in CC(=O)OCc1ccccc1	-3.69
in CC(C)CC(C)(C)C	-2.44
in CC(C)CCCC(C)CCCC(C)CCCCC(C)CCCC(C)CCCC(C)C	-2.37
in CC(C)O	-3.36
in CC=O	-4.07
in CCC(C)=O	-3.98
in CCCCCC	-2.68
in CCCCCCC	-2.57
in CCCCCCCC	-2.53
in CCCCCCCCC=CCCCCCCCC(=O)OCC(COC(=O)CCCCCCCC=CCCCCCCCC)OC(=O)CCCCCCCC=CCCCCCCCC	-3.07
in CCCCCCCCCC	-2.46
in CCCCCCCCCCCCCCCC	-2.3
in CCCCCCCCO	-3.14
in CCCCCO	-3.4
in CCCCCl	-3.62
in CCCCN(C=O)CCCC	-3.55
in CCCCO	-3.51
in CCCCOCCCC	-3.04
in CCN1CCCC1=O	-3.77
in CCN(CC)C(C)=O	-3.82
in CCNC(C)=O	-3.56
in CCNC=O	-3.72
in CCO	-3.78
in CCOC(=O)c1ccccc1C(=O)OCC	-3.53
in CCOC(C)=O	-3.9
in CCOCC	-3.51
in CCOP(=O)(OCC)OCC	-3.64
in CI	-3.91
in CN1CCCC1=O	-3.94
in CN1CCCCC1=O	-3.82
in CN1CCN(C)C1=O	-3.61
in CN(C)C=O	-4.02
in CNC(C)=O	-3.67
in CNC=O	-3.82
in CO	-4.05
in COC(C)=O	-4.02
in COP(=O)(OC)OC	-3.97
in CS(C)=O	-3.67
in Cc1ccc(C)cc1	-3.39
in Cc1cccc(C)c1	-3.4
in Cc1ccccc1C	-3.36
in ClC(Cl)(Cl)Cl	-3.25
in ClC(Cl)Cl	-4.67
in ClCCCl	-4.27
in ClCCl	-4.62
in Clc1ccccc1	-3.63
in N#CCCOCCC#N	-3.86
in NC=O	-3.77
in O	-3.84
in O=C1CCCCC1	-3.8
in O=CN1CCOCC1	-3.66
in OCCOCCO	-3.32
in S=C=S	-3.39
in [2H]O[2H]	-3.82
in c1ccc2ncccc2c1	-3.62
in c1ccccc1	-3.79
